One test concerns the target T1, LSD1 in HCT116 cells (Homo sapiens, UniProt O60341).
T1 construct: host or cells: HCT116
Description: LSD1 degradation (LSD1 abundance) by western blot. The following applies: HCT116, 0.1–10 μM, 24 hours, LSD1 antibody. The class given is cell-based. As to the method:
Using the same conditions, we also determined the effects of SP2509, 25, 27, 28, 30 and 31 on histone H3 lysine 4 dimethyl (H3K4me2) a validated substrate for LSD1 using a specific antibody for H3K4me2 (Fig. S4 ^†).
Compounds were tested at concentration ranges of 0.2–20 μM and LSD1 abundance was quantified at 24 hours (Fig. S5 ^†). 49, 52 and 54 were also evaluated at 48 and 72 hours. […] We also determined the effects of these compounds on the histone methyl marker H3K4me2 (Fig. S5 and S6 ^†).
2.5 Protocols for LSD1 degradation and histone methylation in HCT116 cells HCT116 human colon carcinoma cells were grown in Dulbecco’s Modified Eagle Medium (DMEM) supplemented with Fetal Bovine Serum (FBS, 10% final concentration) and 1x glutamine/penicillin/streptomycin. Cells were incubated at 37 °C and 5% CO2. Cells were treated […]
untreated (WT) cells were included as controls.
(§1) HCT116 cells were seeded into six well plates (400000 cells per well) and after requisite compound treatment time (24h, 48h, 72h) cells were harvested and either snap-frozen in liquid nitrogen or lysed in lysis buffer (50mM Tris-HCl, 150 mM NaCl, 0.5% NP-40, 0.5% Triton X-100 + protease inhibitor) on ice for 30 mins. This was centrifuged (15000 rpm, 4 °C, 15 mins) and the supernatant collected.
H2SO4 (0.4 M, equal volume) was added to the pellets for histone extraction and the tubes incubated overnight at 4 °C. Following this, the histone extract was centrifuged (15000 rpm, 4 °C, 15 mins) and the supernatant collected. Protein concentrations of whole cell extract were quantified via Bradford Assay using BIO-RAD Protein Assay Dye Reagent Concentrate. […]
(§2) or an equivalent volume of histone extract loaded per lane, with all extracts dyed with 4x NuPAGE LDS Sample Buffer. PageRuler Plus Prestained Ladder was used as a reference. Gel electrophoresis was carried out at 140 V for 60-90 mins, following which the proteins were transferred onto nitrocellulose membrane at 30 V for 60 mins. Membranes were blocked in LI-COR Intercept Blocking Buffer overnight at RT on a roller, following which the membrane was probed with primary antibodies for 1 h at RT. The membrane was washed with PBS + 0.1% Tween (3 x 10 mins), then incubated with secondary antibodies for 50 mins at RT. The membrane was washed again (PBS Tween 2 x 10 mins, PBS 1 x 10 mins) following which the blot was visualised with the Odyssey Infrared Imaging System. Image processing and quantification was performed with ImageStudio Lite. […]
(§3) a-tubulin (mouse) – Sigma, t5168 (1:10000 dilution)

The subject of another test is H3K4me2 in HCT116 cells. Nature of the test: Histone methylation H3K4me2 by western blot. The test is classed as cell-based, human. The following applies: HCT116, 0.1–10 μM, 24 hours, H3K4me2 antibody. As to the method: We next screened 25–33 and SP2509 over a concentration range of 0.1–10 μM in HCT116 cells (obtained from ATCC, CCL-247) and determined LSD1 abundance after 24 hours with an antibody for LSD1 (Fig. S4 ^†). […] Using the same conditions, we also determined the effects of SP2509, 25, 27, 28, 30 and 31 on histone H3 lysine 4 dimethyl (H3K4me2) a validated substrate for LSD1 using a specific antibody for H3K4me2 (Fig. S4 ^†).
Compounds 39–41, 49, 52 and 54 were screened for LSD1 degradation in HCT116 cells using a specific antibody for LSD1. This was performed side-by-side with TCP. Compounds were tested at concentration ranges of 0.2–20 μM and LSD1 abundance was quantified at 24 hours (Fig. S5 ^†). 49, 52 and 54 were also evaluated at 48 and 72 hours. […] We also determined the effects of these compounds on the histone methyl marker H3K4me2 (Fig. S5 and S6 ^†).
2.5 Protocols for LSD1 degradation and histone methylation in HCT116 cells HCT116 human colon carcinoma cells were grown in Dulbecco’s Modified Eagle Medium (DMEM) supplemented with Fetal Bovine Serum (FBS, 10% final concentration) and 1x glutamine/penicillin/streptomycin. Cells were incubated at 37 °C and 5% CO2. Cells were treated with compounds (0.1-20 µM) with a final DMSO volume of 0.04%. DMSO (0.04%) treated and untreated (WT) cells were included as controls.
as §1
H2SO4 (0.4 M, equal volume) was added to the pellets for histone extraction and the tubes incubated overnight at 4 °C. Following this, the histone extract was centrifuged (15000 rpm, 4 °C, 15 mins) and the supernatant collected. Protein concentrations of whole cell extract were quantified via Bradford Assay using BIO-RAD Protein Assay Dye Reagent Concentrate.
as §2, with “Western blots were run on NuPAGE 4-12% Bis-Tris gels, with 30 µg of protein (whole cell extract) or an” for “or an”
as §3
In general terms: A western blot detects proteins with antibodies after separation by electrophoresis.

For the molecule `C/C(=N\NC(=O)c1cccc(S(=O)(=O)N2CCOCC2)c1)c1cc(Cl)ccc1O` [SP2509, reference compound], on LSD1 in HCT116 cells, the “LSD1 abundance (degradation)” value is given as “no degradation or change in LSD1 levels”. In addition, the H3K4me2 abundance result in the test with H3K4me2 in HCT116 cells is “no increase in H3K4me2”.

The values above are taken from publication PMC12323867 (RSC Medicinal Chemistry, 2025).
